# Test results: patent publication US4329349A, “6-C1-4 Alkyl-7-phenyl or substituted phenyl-1,6-naphthyridine-5(6H)-ones” (Sandoz, Inc., priority 1980, dated 1982)
# Like-named read-outs stand apart in the source and are kept apart here.
# Key:
# Format in all cases: in vivo
# [1] = tested on: male Royal Hart mice (rotarod time); experiment: Test A (Rotarod Test), muscle relaxant; conditions: for percent change in rotarod time: 200 mg./kg. p.o., vs control; for ED50: Mus musculus, tested 30 and 60 minutes after administration, read-out: ED50 (dose which decreases the rotarod time by 50%)
# Source text: (§1) The compounds of Formula I and the pharmaceutically acceptable acid addition salts thereof are useful for the treatment of inflammation in animals (e.g., mammals) as indicated by Test E and, with the exception of those wherein R2 is 4-NR5 R6 and R3 and R4 are hydrogen, as muscle relaxants in animals (e.g., mammals) as indicated by Tests A, B, C and D. The preferred compounds of Formula I and pharmaceutically acceptable acid addition salts set forth above are those that are preferred for muscle relaxation.
# Test A (Rotarod Test): A modification of the rotarod method of Dunham et al., J. Am. Pharm. Assoc. 46, 208 (1957), is used. Groups of 5 male Royal Hart mice weighing 20-25 g. are trained to ride a rod revolving at 15 r.p.m. covered with corrugated paper for 60-90 seconds. Ability of the mice to remain on the rod is tested again at 30 minutes and 60 minutes after intraperitoneal or oral administration of the drug (the compound of Formula I in free base or pharmaceutically acceptable acid addition salt form) at a dose of 20-400 mg./kg. body weight or saline. Rotarod times for control and treated groups are compared to determine the percent change. The ED50 is the dose of the drug which decreases the rotarod time by 50% or is calculated by interpolation.
# [2] = tested on: linguomandibular reflex; experiment: Test D (Linguomandibular Reflex (LMR)), muscle relaxant; conditions: Felis catus, iv, cats, alpha chloralose anesthesia; read-out: ED50 (dose that reduces the response by 50%)
# Source text: as §1
# Test D (Linguomandibular Reflex (LMR)): The linguomandibular reflex is a polysynaptic reflex involving interneurons within the brain stem. Inhibition of the linguomandibular reflex has been correlated with central muscle relaxant activity. See Bhargava et al., Brit. J. Pharmacol. 25, 74-80 (1965).
# Male cats weighing 2.0-3.0 kg. are utilized to study the effect of a drug on the linguomandibular reflex. […]
# The head of the cat is rigidly fixed in a Kopf stereotaxic u-frame assembly allowing the lower jaw (mandible) to move freely. The movement of the lower jaw is recorded through a system of surgical thread, pulleys and a ft. […]
# After consistent linguomandibular responses are obtained, the test drug (compound of Formula I in free base or pharmaceutically acceptable acid addition salt form) is administered intravenously at a dose of 2-50 mg./kg. body weight and its effect is recorded. […]
# [3] = tested on: carrageenan-induced edema; experiment: Test E (Acute Carrageenan-Induced Edema), anti-inflammatory; conditions: Rattus norvegicus, po, 3 h; p.o., rats, one hour prior to carrageenan; edema measured three hours after carrageenan
# Source text: as §1
# Test E (Acute Carrageenan-Induced Edema): Rats are orally dosed (10-200 mg./kg. body weight) with the test drug (compound of Formula I in free base or pharmaceutically acceptable acid addition salt form) one hour prior to administration of carrageenan; edema is measured three hours subsequent to the carrageenan administration. See Winter, Proc. Soc. Exp. Biol. 111, 544 (1962).
# [4] = tested on: mono (patellar)--and poly (flexor)--synaptic gross spinal reflexes; experiment: Test B (Gross Spinal Reflex), muscle relaxant; conditions: Felis catus, iv, cats, alpha chloralose anesthesia, progressively accumulating doses; read-out: ED50 (dose that reduces the response by 50%)
# Source text: as §1
# Test B (Gross Spinal Reflex): Male cats weighing 2.5-3.0 kg. are utilized to study the effects of drugs on the mono (patellar)--and poly (flexor)--synaptic gross spinal reflexes. A Grass Model 7 polygraph with two ft. 03 force displacement transducers and two low level D.C. pre-amplifiers is utilized to measure the flexor and patellar responses.
# Anesthesia is induced with ether, followed by an i.v. injection of alpha chloralose dissolved in warm distilled water at a dose of 70 mg./kg. body weight. […]
# A drill bit pin is inserted just behind the lateral epicondyle of the left femur. […] Contraction of the left leg is measured via a force displacement transducer. […]
# A series of control responses is recorded prior to administration of the drug (compound of Formula I in free base or pharmaceutically acceptable acid addition salt form). […]
SMILES,percent change in rotarod time [1] [%],ED50 ([1]; ip) [mg/kg],ED50 [2] [mg/kg],ED50 [3] [mg/kg],ED50 ([1]; po) [mg/kg],ED50 [4] [mg/kg]
"Cn1c(-c2ccc(Cl)cc2)cc2ncccc2c1=O [Example 11, 7-(4'-Chlorophenyl)-6-methyl-1,6-naphthyridine-5-(6H)-one]",32,134,,,,
"Cn1c(-c2ccccc2Cl)cc2ncccc2c1=O [Example 4, 7-(2'-Chlorophenyl)-6-methyl-1,6-naphthyridine-5(6H)-one]",,49.3,4.6,29,39.1,1.6
"Cc1ccccc1-c1cc2ncccc2c(=O)n1C [Example 6, 6-Methyl-7-(2'-methylphenyl)-1,6-naphthyridine-5-(6H)-one]",,36.8,,,43.5,
"CN(C)c1cccc(-c2cc3ncccc3c(=O)n2C)c1 [Example 8, 7-(3'-Dimethylaminophenyl)-6-methyl-1,6-naphthyridine-5(6H)-one]",47.3,141,,,,
